Data as given in ChEMBL document CHEMBL1144056, “Characterization of 6-epi-3-anhydroophiobolin B from Cochliobolus heterostrophus” (J Nat Prod, 1999).
Converted amounts (≈) assume the structure as drawn.

Assays:
Plasmodium falciparum [1] = assay: Antimalarial activity against Plasmodium falciparum D6; type: functional, organism-based
Plasmodium falciparum [2] = assay: Antimalarial activity against Plasmodium falciparum W2; type: functional, organism-based
HT-29 = assay: Cytotoxicity against human HT-29 cells; type: functional, cell-based
A549 = assay: Cytotoxicity against human A549 cells; type: functional, cell-based
P388 = assay: Cytotoxicity against mouse P388 cells; type: functional, cell-based
[3] = Cytotoxicity against human Mel20 cells; type: functional, cell-based

With `CC(C)=C[C@H]1C[C@H](C)[C@]2(CC[C@]3(C)C[C@H]4[C@H](C(=O)C[C@@]4(C)O)/C(C=O)=C\C[C@H]32)O1` [OPHIOBOLIN A] as the molecule, how does the IC50 (Plasmodium falciparum [1]) read?
The IC50 was under 0.529 µg/mL.

What about the IC50 (Plasmodium falciparum [2]) of the same molecule?
The IC50 was 0.58 µg/mL (≈ 1.45 µM).

And the IC50 (HT-29)?
Its IC50 is 0.05 µg/mL (≈ 0.125 µM).

And the IC50 (A549)?
Its IC50 is 0.05 µg/mL (≈ 0.125 µM).

And the IC50 (P388)?
The IC50 was 0.025 µg/mL (≈ 0.0624 µM).

And the IC50 [3]?
The IC50 was 0.05 µg/mL (≈ 0.125 µM).
